In ChEMBL document CHEMBL1150359, “Identification of non-lipid LPA3 antagonists by virtual screening” (Bioorg Med Chem, 2008):
One block for each molecule: values may come before it. Calls of active or inactive are those of the source. The calls are words filed in the database; no cut-off is given here. Peptide text beside a SMILES is read from it. * marks the point of attachment. Dnp = O=[N+]([O-])c1ccc(*)c([N+](=O)[O-])c1

Assays:
[1] = target: T1, Lysophosphatidic acid receptor 3 (Homo sapiens) (UniProt Q9UBY5); test: (§1) Antagonist activity at LPA3 receptor expressed in rat RH7777 cells assessed as inhibition of LPA-induced intracellular calcium concentration; format: functional, cell-based
T1 sequence (whole entry): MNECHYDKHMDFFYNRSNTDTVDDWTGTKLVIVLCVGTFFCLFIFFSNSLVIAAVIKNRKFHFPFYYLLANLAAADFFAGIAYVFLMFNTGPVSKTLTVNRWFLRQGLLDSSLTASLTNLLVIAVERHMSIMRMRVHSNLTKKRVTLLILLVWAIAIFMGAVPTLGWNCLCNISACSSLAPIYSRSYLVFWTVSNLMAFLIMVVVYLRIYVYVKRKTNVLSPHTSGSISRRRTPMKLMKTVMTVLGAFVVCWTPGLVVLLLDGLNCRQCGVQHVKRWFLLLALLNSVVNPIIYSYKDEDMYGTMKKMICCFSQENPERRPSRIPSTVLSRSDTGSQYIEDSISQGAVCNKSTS

[2] = target: T2, Lysophosphatidic acid receptor 1 (Homo sapiens, UniProt Q92633); test: Antagonist activity at LPA1 receptor expressed in rat RH7777 cells assessed as inhibition of LPA-induced intracellular calcium concentration; format: functional, cell-based
T2 sequence (Q92633 whole entry): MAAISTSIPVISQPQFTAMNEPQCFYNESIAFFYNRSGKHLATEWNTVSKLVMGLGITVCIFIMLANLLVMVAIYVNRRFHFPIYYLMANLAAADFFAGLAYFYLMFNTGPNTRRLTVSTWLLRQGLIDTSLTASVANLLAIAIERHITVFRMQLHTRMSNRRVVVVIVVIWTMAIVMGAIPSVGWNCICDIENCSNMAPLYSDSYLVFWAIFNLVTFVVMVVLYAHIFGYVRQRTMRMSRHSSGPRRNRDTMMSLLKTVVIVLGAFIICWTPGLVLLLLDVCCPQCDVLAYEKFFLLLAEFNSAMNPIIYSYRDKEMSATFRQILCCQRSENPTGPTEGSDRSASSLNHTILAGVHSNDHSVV

[3] = target: T3, Lysophosphatidic acid receptor 2 (Homo sapiens, UniProt Q9HBW0); test: Antagonist activity at LPA2 receptor expressed in rat RH7777 cells assessed as inhibition of LPA-induced intracellular calcium concentration; format: functional, cell-based
T3 sequence (Q9HBW0 whole entry): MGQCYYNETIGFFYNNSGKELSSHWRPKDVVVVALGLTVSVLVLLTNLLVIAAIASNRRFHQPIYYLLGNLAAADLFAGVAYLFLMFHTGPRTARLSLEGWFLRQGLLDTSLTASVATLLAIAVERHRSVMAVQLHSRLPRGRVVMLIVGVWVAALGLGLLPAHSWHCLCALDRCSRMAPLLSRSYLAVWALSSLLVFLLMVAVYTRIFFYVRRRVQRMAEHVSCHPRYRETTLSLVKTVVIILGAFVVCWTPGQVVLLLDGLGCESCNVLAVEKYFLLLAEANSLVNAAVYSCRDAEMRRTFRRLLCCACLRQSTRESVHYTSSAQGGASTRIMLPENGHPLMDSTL

[4] = target: T2, Lysophosphatidic acid receptor 1; test: Activity at LPA1 receptor expressed in rat RH7777 cells assessed as inhibition of LPA-induced intracellular calcium concentration at 30 uM; format: functional, cell-based
[5] = target: T1, Lysophosphatidic acid receptor 3 (Homo sapiens); test: Activity at LPA3 receptor expressed in rat RH7777 cells assessed as inhibition of LPA-induced intracellular calcium concentration at 30 uM; format: functional, cell-based
[6] = target: T3, Lysophosphatidic acid receptor 2; test: Activity at LPA2 receptor expressed in rat RH7777 cells assessed as inhibition of LPA-induced intracellular calcium concentration at 30 uM; format: functional, cell-based
[7] = target: T4, Lysophosphatidic acid receptor 3 (Homo sapiens, UniProt Q9UBY5); test: as §1; format: functional, cell-based
T4 sequence (Q9UBY5 whole entry): T1 sequence (whole entry)

[8] = target: T4, Lysophosphatidic acid receptor 3; test: Inhibition of LPA3 receptor
[9] = target: T3, Lysophosphatidic acid receptor 2; test: Agonist activity at LPA2 receptor expressed in rat RH7777 cells assessed as LPA-induced intracellular calcium response; format: functional, cell-based
[10] = target: T2, Lysophosphatidic acid receptor 1; test: Agonist activity at LPA1 receptor expressed in rat RH7777 cells assessed as LPA-induced intracellular calcium response; format: functional, cell-based
[11] = target: T4, Lysophosphatidic acid receptor 3; test: Agonist activity at LPA3 receptor expressed in rat RH7777 cells assessed as LPA-induced intracellular calcium response; format: functional, cell-based
[12] = target: T1, Lysophosphatidic acid receptor 3 (Homo sapiens); test: Activity at LPA3 receptor expressed in rat RH7777 cells assessed as potentiation of LPA-induced intracellular calcium concentration; format: functional, cell-based

Imax [1]: 53.7%
IC50 [2]: > 7300 nM
Imax [2]: 59.3%
IC50 [3]: > 9400 nM
Imax [3]: 88%
Compound: Nc1ccc(C(=O)Nc2ccc(C(=O)Nc3ccc4c(O)cc(S(=O)(=O)O)cc4c3)cc2)cc1

Imax [4]: 52.2%
Imax [5]: 16%
Compound: O=C(O)/C=C\C(=O)Nc1cccc(NC(=O)Cc2ccccc2)c1

Imax [6]: 46%
IC50 [7]: 347 nM
Ki [7]: 317 nM
Imax [4]: 34.6%
Compound: O=C(O)/C=C\C(=O)Nc1cccc(NC(=O)c2ccccc2)c1

Compound: O=C(O)/C=C/C(=O)Nc1ccc(Oc2cccc(Oc3ccc(NC(=O)/C=C/C(=O)O)cc3)c2)cc1
IC50 [7]: 1230 nM
Ki [7]: 310 nM
IC50 [2]: 27400 nM
Ki [2]: 13500 nM
IC50 [3]: 8.9 nM
Ki [3]: 7.2 nM

IC50 [7]: 13800 nM
Ki [7]: 7020 nM
Imax [4]: 59%
IC50 [3]: 28.3 nM
Ki [3]: 21.1 nM
Compound: O=C(O)/C=C/C(=O)Nc1ccc(-c2ccc(NC(=O)/C=C/C(=O)O)cc2)cc1

IC50 [8]: 143 nM
Compound: CCCCCCC(=O)OC[C@H](COP(=O)(O)O)OC(=O)CCCCCC

Emax [6]: 113%
EC50 [9]: > 11400 nM
Emax [2]: 180%
EC50 [10]: > 12300 nM
Emax [5]: 214%
EC50 [11]: > 11800 nM
Compound: CCOC(=O)c1ccc(/C=C/c2ccc(S(=O)(=O)O)cc2)cc1

Activity [12]: Active
Compound: O=P(O)(O)OC[C@H]1O[C@@H](n2cnc3c(NCc4ccccc4)ncnc32)[C@H](O)[C@@H]1O

IC50 [2]: 220 nM
Ki [2]: 50 nM
IC50 [3]: 21.8 nM
Ki [3]: 20.8 nM
Compound: O=C(O)/C=C/C(=O)Nc1cccc(NC(=O)/C=C/C(=O)O)c1

Imax [1]: 81.7%
Imax [3]: 53.3%
Compound: O=C(O)/C=C/C(=O)Nc1cccc(NC(=O)/C=C/C(=O)O)c1C(=O)O

Compound: CCCCCCC(=O)OC[C@H](COP(O)(O)=S)OC(=O)CCCCCC
IC50 [8]: 184 nM

Compound: NCC(=O)N[C@@H](CSc1ccc([N+](=O)[O-])cc1[N+](=O)[O-])C(=O)N[C@@H](CCC(=O)O)C(=O)O (H-Gly-Cys(Dnp)-Glu-OH)
Imax [1]: 69.8%
IC50 [7]: 24 nM
